Measured values reported in patent publication US20180346446A1, “IRE1 SMALL MOLECULE INHIBITORS” (QUENTIS THERAPEUTICS, INC., priority 2017, published 2018).

What was measured:
[1] = biological target: T1, IRE1a (Homo sapiens, UniProt O75460); test: IRE1a Endoribonuclease Nanoluciferase Assay (XBP1 luciferase reporter in 293T cells); type: cell-based; conditions: 293T cells transfected with XBP1 luciferase reporter, ER stressors +/- inhibitors
Method: Compounds disclosed herein were assessed for disruption of IRE1 signaling using a IRE1a Endoribonuclease Nanoluciferase Assay. Briefly, 2.5×10^6 293T cells were seeded in a 10 cm^2 tissue culture plate. About 24 hours later, the cells were transfected with Effectene. In a 15 mL Tube, the following was added: 2 ug XBP1 luciferase reporter plasmid (PGK-Luc2-P2A-XBP1u-Nanoluciferase-PEST); 300 ul EC buffer; and 16 ul Enhancer, followed by incubation at room temp for 5 minutes. Next, 60 ul Effectene (Qiagen 301427) was added, followed by incubation at room temperature for 10 minutes. 2.6 mL cDMEM media was added. Old media was aspirated from the cells, followed by addition of 7 mL fresh media. Full transfection mixture was added dropwise to cells. Cells were incubated for 6 hours, followed by trypsinization, centrifugation and resuspension in 11 mL media. 100 uL of cells were plated per a well in a 96 well plate. A day later, ER stressors of choice +/− inhibitors were added. To harvest, media was aspirated from cells completely, then 50 uL 1× passive lysis buffer (Promega: E1941) was added per well and put on shaker (300 rpm) for 30 minutes at room temperature. Cells were centrifuged, and 15 uL sample per well was added to a new, opaque white 384 well plate (Corning 3570). 15 uL OneGlo (nanoluciferase kit, Promega N1630) was added. Plates were spun down, placed on shaker (300 rpm) for 10 minutes. Plates were read on luminometer, 1000 ms integration time per well. 15 uL Stop and Glo (nanoluciferase kit) was added. Plates were spun down, placed on shaker (300 rpm) for 10 minutes. Plates were read on luminometer, 1000 ms second integration time per well. Recordings are provided below in Table 4.

[2] = system: 293T cells; test: Growth assay (cytotoxicity); type: cell-based; conditions: 2 day incubation
Method: A growth assay was performed to evaluate the compounds disclosed herein for cytotoxicity. Briefly, 5,000,000 293T cells were resuspended in 18 mL of cDMEM for a final concentration of 277,777 cells/mL. […] In a separate 96 well dilution plate, 199 uL cDMEM and 1 uL of DMSO or any one of the compounds disclosed herein (shown as Test Compound 1, 2, 3, 4, 5, or 6 below) were added to wells A4, A8, C4, C8, E4, E8, G4, and G8. 133.3 uL cDMEM was added to wells 1, 2, 3, 5, 6, and 7 in rows A, C, E and G of the dilution plate. Compounds were serially diluted leftwards in threefold dilutions (66.7 uL into 133.3 uL cDMEM). 20 uL of each dilution was transferred in duplicate (duplicates in vertical paired wells) to the cells plated in the 96-well plate shown in Table 5, to the total concentrations shown below. 200 uL cDMEM was added to media wells (wells G5-H8). The plate was then placed in a humidified chamber for a 2 day incubation, and then photographed (media was more yellow in wells with potent cell growth). Absorbance was then measured at about […] (lower for more acidic media) and about […] (higher for more acidic media).

[3] = biological target: T1, IRE1a; test: In vitro FRET assay (XBP1 RNA probe cleavage by IRE1a); type: biochemical; set-up: purchased SignalChem; conditions: 2 nM IRE1a protein
Method: In vitro FRET assay was performed to evaluate the ability of select compounds to inhibit IRE1, the results of which are summarized in Table 3. To perform the in vitro FRET assay, 1× complete assay buffer (CAB; […], 50 mM sodium citrate pH 7.15, ImM magnesium acetate, 0.02% tween 20) was used to dilute SignalChem IRE1a protein to a final concentration of 2 nM. Selected compounds were serially diluted with DMSO in a non-binding black 384-well plate for a total of 15 ul in each well. 2 ul of the serially diluted compound or DMSO control were then added to new wells containing 98 ul of 1×CAB, for a total volume of 100 ul, 10 ul of which were then transferred to wells of a new plate. 5 ul of the diluted IRE1a was then added to each well. 5 ul of a […] XBP1 RNA probe was then added to each well. Fluorescence was then read over 30 minutes in kinetic mode (485/515 nm).
Two RNA probes were used, XBP1 wildtype (SEQ ID NO: 2) which is able to be spliced by active IRE1a or XBP1 mutant (SEQ ID NO: 3) which is unable to be spliced. Each probe contained a 5′ 6-FAM modification and a 3′ IOWA Black FQ modification. […]

T1 sequence (O75460 19-977): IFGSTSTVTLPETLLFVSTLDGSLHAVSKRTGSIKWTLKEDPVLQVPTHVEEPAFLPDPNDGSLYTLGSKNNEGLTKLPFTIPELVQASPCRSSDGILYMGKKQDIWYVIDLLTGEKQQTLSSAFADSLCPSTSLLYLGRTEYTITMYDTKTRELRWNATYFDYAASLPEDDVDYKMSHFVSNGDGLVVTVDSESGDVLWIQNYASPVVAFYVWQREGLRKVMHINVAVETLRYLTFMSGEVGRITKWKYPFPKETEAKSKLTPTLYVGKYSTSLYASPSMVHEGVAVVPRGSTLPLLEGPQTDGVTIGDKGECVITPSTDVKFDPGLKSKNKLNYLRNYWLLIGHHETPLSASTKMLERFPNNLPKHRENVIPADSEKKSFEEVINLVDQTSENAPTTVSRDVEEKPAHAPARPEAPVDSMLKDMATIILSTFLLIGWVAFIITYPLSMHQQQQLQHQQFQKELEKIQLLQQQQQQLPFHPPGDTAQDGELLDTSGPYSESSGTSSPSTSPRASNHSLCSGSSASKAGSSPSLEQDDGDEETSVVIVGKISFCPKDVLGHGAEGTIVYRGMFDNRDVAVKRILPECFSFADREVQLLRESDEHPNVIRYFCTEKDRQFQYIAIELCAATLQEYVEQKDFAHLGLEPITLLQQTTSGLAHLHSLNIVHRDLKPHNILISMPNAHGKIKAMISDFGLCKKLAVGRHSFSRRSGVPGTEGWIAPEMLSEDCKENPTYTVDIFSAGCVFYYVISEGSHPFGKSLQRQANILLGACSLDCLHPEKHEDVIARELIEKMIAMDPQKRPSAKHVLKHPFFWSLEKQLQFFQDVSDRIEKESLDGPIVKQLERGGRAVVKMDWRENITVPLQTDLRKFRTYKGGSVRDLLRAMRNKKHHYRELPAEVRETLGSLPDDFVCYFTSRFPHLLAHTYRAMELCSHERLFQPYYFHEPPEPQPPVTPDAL

Compound: CCc1cc(-c2cc(NS(=O)(=O)c3ccccc3Cl)n[nH]2)cc2cnc(N[C@H]3CC[C@H](N)CC3)nc12.O=CO [29; Formic Acid]
- EC50 [1]: > 100 nM
- % Growth at 0.185 uM [2]: D (D: >75% to ≤100%)
- % Growth at 0.5556 uM [2]: D (D: >75% to ≤100%)
- % Growth at 1.667 uM [2]: D (D: >75% to ≤100%)
- % Growth at 5 uM [2]: D (D: >75% to ≤100%)
- IC50 [3]: ≤ 5 nM

Compound: CCc1cc(-c2ccc(NS(=O)(=O)c3ccccc3Cl)cc2)cc2cnc(N[C@H]3CC[C@H](N)CC3)nc12.O=CO [18; Formic Acid]
- EC50 [1]: ≤ 5 nM
- % Growth at 0.185 uM [2]: D (D: >75% to ≤100%)
- % Growth at 0.5556 uM [2]: D (D: >75% to ≤100%)
- % Growth at 1.667 uM [2]: C (C: >50% to ≤75%)
- % Growth at 5 uM [2]: A (A: ≤25%)
- IC50 [3]: ≤ 5 nM

Compound: CCc1cc(NS(=O)(=O)c2ccccc2Cl)ccc1-c1cc(CC)c2nc(N[C@H]3CC[C@H](N)CC3)ncc2c1.O=CO [34; Formic Acid]
- EC50 [1]: 5 to 50 nM
- % Growth at 0.185 uM [2]: D (D: >75% to ≤100%)
- % Growth at 0.5556 uM [2]: D (D: >75% to ≤100%)
- % Growth at 1.667 uM [2]: D (D: >75% to ≤100%)
- % Growth at 5 uM [2]: A (A: ≤25%)
- IC50 [3]: ≤ 5 nM

Compound: CCc1cc(-c2ncc(NS(=O)(=O)c3ccccc3Cl)cc2F)cc2cnc(N[C@H]3CC[C@H](N)CC3)nc12.O=CO [52; Formic Acid]
- EC50 [1]: ≤ 5 nM
- % Growth at 0.185 uM [2]: D (D: >75% to ≤100%)
- % Growth at 0.5556 uM [2]: D (D: >75% to ≤100%)
- % Growth at 1.667 uM [2]: D (D: >75% to ≤100%)
- % Growth at 5 uM [2]: C (C: >50% to ≤75%)
- IC50 [3]: ≤ 5 nM

Compound: CCc1cc(-c2ncc(NS(=O)(=O)c3ccccc3Cl)cc2C)cc2cnc(N[C@H]3CC[C@H](N)CC3)nc12.O=CO [20; Formic Acid]
- EC50 [1]: 50 to 100 nM
- % Growth at 0.185 uM [2]: D (D: >75% to ≤100%)
- % Growth at 0.5556 uM [2]: D (D: >75% to ≤100%)
- % Growth at 1.667 uM [2]: D (D: >75% to ≤100%)
- % Growth at 5 uM [2]: C (C: >50% to ≤75%)
- IC50 [3]: ≤ 5 nM

Compound: CCc1cc(-c2ccc(NS(=O)(=O)c3ccccc3Cl)c(F)c2)cc2cnc(NC34CCC(N)(CC3)CC4)nc12 [87; Formic Acid]
- EC50 [1]: ≤ 5 nM
- IC50 [3]: ≤ 5 nM

Compound: Cc1nc(NS(=O)(=O)c2ccccc2Cl)ncc1-c1ccc2nc(N[C@H]3CC[C@H](N)CC3)ncc2c1 [68; Formic Acid]
- EC50 [1]: 50 to 100 nM
- IC50 [3]: ≤ 5 nM

Compound: CCc1cc(-c2ccc(NS(=O)(=O)c3ccccc3Cl)c(F)c2)cc2cnc(N[C@@H]3CC[C@H](N)C3)nc12 [79; Formic Acid]
- EC50 [1]: 5 to 50 nM
- IC50 [3]: ≤ 5 nM

Compound: CCc1cc(-c2ccc(NS(=O)(=O)c3cccc(C)c3)nc2C)cc2cnc(N[C@H]3CC[C@H](N)CC3)nc12 [113; Formic Acid]
- EC50 [1]: 5 to 50 nM
- IC50 [3]: ≤ 5 nM

Compound: CCc1cc2nc(N[C@H]3CC[C@H](N)CC3)ncc2cc1-c1ccc(NS(=O)(=O)c2ccccc2Cl)nc1OC [110; Formic Acid]
- EC50 [1]: ≤ 5 nM
- IC50 [3]: ≤ 5 nM

Compound: CCc1cc(-c2ccc(NS(=O)(=O)c3ccccc3Cl)c(F)c2)cc2cnc(N[C@H]3CC[C@H](NC(C)=O)CC3)nc12 [59; Formic Acid]
- EC50 [1]: 50 to 100 nM
- IC50 [3]: 5 to 50 nM

Compound: COc1nc(NS(=O)(=O)c2ccccc2Cl)ccc1-c1cc(C)c2nc(N[C@H]3CC[C@H](N)CC3)ncc2c1 [115; Formic Acid]
- EC50 [1]: ≤ 5 nM
- IC50 [3]: ≤ 5 nM

Compound: CCc1cc(-c2ncc(NS(=O)(=O)c3ccccc3Cl)nc2C)cc2cnc(N[C@H]3CC[C@H](N)CC3)nc12 [94; Formic Acid]
- EC50 [1]: ≤ 5 nM
- IC50 [3]: ≤ 5 nM

Compound: CCc1cc(-c2cc(F)c(NS(=O)(=O)c3ccccc3Cl)cc2OC)cc2cnc(N[C@H]3CC[C@H](N(C)C)CC3)nc12 [120; Formic Acid]
- EC50 [1]: ≤ 5 nM
- IC50 [3]: ≤ 5 nM

Compound: CCc1cc(-c2ccc(NS(=O)(=O)c3ccccc3Cl)c(F)c2)cc2cnc(N[C@H]3CC4C[C@H](N)CC4C3)nc12 (some centres unmarked) [82; Formic Acid]
- EC50 [1]: 5 to 50 nM
- IC50 [3]: ≤ 5 nM
